In assay [1] the test system is Early Stage PD patients. The note with it: 1 mg only; end of the PC phase. The source says: (§1) III. Additional Efficacy Endpoints • 1. Number (%) of subjects who need additional anti-PD therapy • 2. Time to need of additional anti-PD therapy • 3. Change from baseline to LOV in placebo-controlled phase in Part I of revised UPDRS (version 4)
For assay [2], the system named is Early Stage PD patients. The settings on record: rasagiline 1 mg and 2 mg; end of the PC phase. The source says: IV. Sub-Study • 1. Change from baseline to LOV in placebo-controlled phase in Parkinson Fatigue scale • 2. Change from baseline in Subject Reported Outcomes (US only) • 3. A blood sample for pharmacogenetic analysis will be collected from all subjects at baseline. If not performed at baseline, can be performed at any other visit. Participation in this sub-study is voluntary pending IRB/EC approval and subject's authorization on a separate informed consent form.

Assay [3] deals with Early Stage PD patients.
Source text: If, at any stage during the placebo-controlled phase the investigator determines that a subject needs additional anti-PD therapy, the subject will proceed to Phase II of the study. The investigator, aided by a questionnaire, will give careful consideration to the issue of a subject's need for additional anti-PD therapy. Scheduled in-clinic visits will be conducted at baseline and at weeks 4, 12, 24 and 36. Therefore, altogether there will be 5 scheduled visits during this phase. Unscheduled visits may be conducted at any time to assess a subject's need for additional anti-PD therapy, for safety reasons or for any other reason.
as §1

Another assay has as its system PD patients. The note with it: cited from earlier work.

With `C#CCN[C@@H]1CCc2ccccc21` [rasagiline], in the assay with Early Stage PD patients [1], the “UPDRS Version 4 Part 1” value is “beneficial effect”. Moreover, the “Parkinson Fatigue Scale” value in the assay with Early Stage PD patients [2] is reported as “beneficial effect”. The “Hazard Ratio, time to additional anti-PD therapy, 1 mg-Placebo Difference” value with Early Stage PD patients [3] (PC Phase, rasagiline 1 mg vs placebo, Cox Proportional Hazards Model) was 0.385. Further, the “Hazard Ratio, time to additional anti-PD therapy, 2 mg-Placebo Difference” value in the assay on Early Stage PD patients [3] (PC Phase, rasagiline 2 mg vs placebo, Cox Proportional Hazards Model) is 0.379. The “Need for additional anti PD Therapy” value in the assay with Early Stage PD patients [3] (rasagiline 1 mg and 2 mg, end of the PC phase) is given as “beneficial effect”. Besides, the “functional decline vs treatment delayed for 6 months” value in the assay on PD patients (1 and 2 mg/d rasagiline for one year, TEMPO) is “less functional decline”. Besides, the “efficacy as monotherapy in PD patients” value with PD patients (first 6-month double-blind, randomized placebo-controlled stage of TEMPO) is listed as “efficacious as monotherapy”.

These data come from patent publication US20140243418A1, “RASAGILINE FOR PARKINSON'S DISEASE MODIFICATION” (Teva Pharmaceutical Industries, Ltd., priority 2008, published 2014).
